In patent publication US8178506B2, “Oligomeric compounds and compositions for use in modulation of small non-coding RNAs” (Regulus Therapeutics Inc., priority 2003, dated 2012):
In the oligonucleotide strings, read from the 5' end, every base follows the letter of its sugar. An asterisk marks phosphorothioate; unmarked linkages are phosphodiester. Other units and linkages are bracketed, terminal groups are in braces. A string of capitals states the bases alone. e = 2'-O-(2-methoxyethyl) (MOE); [5mC] = 5-methylcytosine; d = 2'-deoxy (DNA)

Tests used:
[1] = tested on: mir-15a pri-miRNA; assay: mir-15a pri-miRNA expression in HepG2 cells (real-time RT-PCR); assay type: cell-based, human; conditions: for expression of the mir-15a pri-miRNA molecule: HepG2, 100 nM
Procedure: Using the real-time RT-PCR methods described in Example 19, the expression levels of the mir-15a pri-miRNA were compared in HepG2 cells treated with a nested series of chimeric gapmer oligomeric compounds, targeting and spanning the entire length of the mir-15a pri-miRNA; these compounds are shown in Table 45, below. […] All cytidine residues are 5-methylcytidines. Using the transfection methods described herein, HepG2 cells were treated with 100 nM of each of these gapmer oligomeric compounds. Total RNA was isolated from HepG2 cells by lysing cells in 1 mL TRIZOL™ (Invitrogen) using the manufacturer's recommended protocols. Real-time RT-PCR analysis was performed using a primer/probe set specific for the mir-15a pri-miRNA molecule to assess the effects of these compounds on expression of the mir-15a pri-miRNA molecule. ISIS 339317 ([…]; SEQ ID NO.: 885) was used as the forward primer, ISIS 339318 (TGGCCTGCACCTTTTCAAA; SEQ ID NO.: 886) was used as the reverse primer, and ISIS 339319 ([…]; SEQ ID NO.: 887) was used as the probe. Total RNA was quantified using RiboGreen™ RNA quantification reagent (Molecular Probes, Inc. Eugene, Oreg.), expression levels observed for each target are normalized to 5.8S rRNA, and values are expressed relative to the untreated control. Inhibition of expression of the mir15a pri-miRNA by these gapmer oligomeric compounds is expressed as a percentage of RNA levels in untreated control cells.

[2] = tested on: T47Dp53 cells; assay: Cell cycle assay in T47Dp53 cells; assay type: cell-based, human; conditions: 150 nM, 48 hours; for % cells in cell cycle phase G1 / % cells in cell cycle phase G2/M / % cells in cell cycle phase S / % cells in cell cycle phase aneuploid / % cells in cell cycle phase subG1: relative to untreated control
Procedure: (§1) In further studies, additional cell lines were treated with oligomeric compounds targeted against miRNAs to assess the effects of each oligomeric compound on cell cycling. BJ, B16, T47D, and HeLa cells were cultured and transfected as described above. […] T47Dp53 cells are T47D cells that have been transfected with and selected for maintenance of a plasmid that expresses a wildtype copy of the p53 gene (for example, pCMV-p53; Clontech, Palo Alto, Calif.), using standard laboratory procedures. BJ cells were treated with 200 nM of each oligomeric compound, and T47D, T47Dp53, HeLa, and B16 cells were treated with 150 nM of each oligomeric compound. The human foreskin fibroblast BJ cell line represents a non-cancer cell line, while HeLa, T47D, T47Dp53 cells and the mouse melanoma cell line B16-F10 represent cancerous cell lines. For comparison, oligomeric compounds ISIS 183891 (SEQ ID NO: 847) and ISIS 285717 ([…]; herein incorporated as SEQ ID NO: 857), both targeting the kinesin-like 1/Eg5 mRNA, involved in cell cycling, were used as positive controls. The random-mer ISIS 29848 was used as a negative control. Additionally, the oligomeric compounds ISIS Number 25690 ([…]; herein incorporated as SEQ ID NO: 858) and ISIS Number 25691 ([…]; herein incorporated as SEQ ID NO: 859), targeted to nucleotides 3051-3070 and 3085-3104, respectively, of the mRNA encoding the Drosha RNase III (GenBank Accession NM_013235.2, incorporated herein as SEQ ID NO: 860) were also tested. ISIS Number 25690 and ISIS Number 25691 are 5-10-52′-MOE gapmer compounds, 20 nucleotides in length, with phosphorothioate internucleoside linkages throughout the oligomeric compound. All cytidine residues are 5-methylcytidines. Transfections were performed using the methods described herein. Cells were prepared for flow cytometry 48-hours after oligonucleotide treatment. Results of these studies are shown in Table 35, where data are expressed as percentage of cells in each phase relative to the untreated control cells in that phase.

[3] = tested on: HeLa cells; assay: Cell cycle assay in HeLa cells; assay type: cell-based, human; conditions: for % cells aneuploid / % cells in cell cycle phase G1 / % cells in cell cycle phase G2/M / % cells in cell cycle phase S / % cells in cell cycle phase subG1 / % cells in cell cycle phase: G1 / % cells in cell cycle phase: G2/M / % cells in cell cycle phase: S / % cells in cell cycle phase: aneuploid / % cells in cell cycle phase: subG1 / % cells in cell cycle phase aneuploid: HeLa cells; for % cells in cell cycle phase: G1 / % cells in cell cycle phase: G2/M / % cells in cell cycle phase: S / % cells in cell cycle phase: aneuploid / % cells in cell cycle phase: subG1: 48 hours after treatment, relative to untreated control (UTC=100)
[4] = tested on: BJ cells; assay: Cell cycle assay in BJ cells; assay type: cell-based, human; conditions: 200 nM, 48 hours; for % cells in cell cycle phase G1 / % cells in cell cycle phase G2/M / % cells in cell cycle phase S / % cells in cell cycle phase aneuploid / % cells in cell cycle phase subG1: relative to untreated control
Procedure: (§2) BJ cells were routinely cultured in MEM high glucose with 2 mM L-glutamine and Earle's BSS adjusted to contain 1.5 g/L sodium bicarbonate and supplemented with 10% fetal bovine serum, 0.1 mM non-essential amino acids and 1.0 mM sodium pyruvate (all media and supplements from Invitrogen Life Technologies, Carlsbad, Calif.). B16-F10 cells were routinely cultured in DMEM high glucose (Invitrogen Life Technologies, Carlsbad, Calif.) supplemented with 10% fetal bovine serum (Invitrogen Life Technologies, Carlsbad, Calif.). T47D cells were cultured in DMEM High glucose media (Invitrogen Life Technologies, Carlsbad, Calif.) supplemented with 10% fetal bovine serum. […] Cells were plated on collagen-coated 24-well plates (Falcon-Primaria #3047, BD Biosciences, Bedford, Mass.) at approximately 50,000 cells per well and allowed to attach to wells overnight.
as §1

[5] = tested on: B16-F10 cells; assay: Cell cycle assay in B16-F10 cells; assay type: cell-based, mouse; conditions: 150 nM, 48 hours, relative to untreated control
Procedure: as §2, §1

[6] = tested on: T47D cells; assay: Cell cycle assay in T47D cells; assay type: cell-based, human; conditions: 150 nM, 48 hours, relative to untreated control
Procedure: as §2, §1

[7] = 150 nM oligomeric compound, 24 hours, relative to untreated control (UTC = 100)
[8] = 150 nM, 48 hours, relative to untreated control

ISIS 347973: 5-10-5 2′-MOE gapmer PS; targets mir-15a pri-miRNA (antisense eG*eG*e[5mC]*eA*eG*d[5mC]*dA*d[5mC]*dA*dA*dT*dA*dT*dG*dG*e[5mC]*e[5mC]*eT*eG*e[5mC])
expression of the mir-15a pri-miRNA molecule [1]: stimulate an increase in expression levels of the mir-15a pri-miRNA

ISIS 347964: 5-10-5 2′-MOE gapmer PS; targets mir-15a pri-miRNA (antisense eT*eA*eT*eA*eA*d[5mC]*dA*dT*dT*dG*dA*dT*dG*dT*dA*eA*eT*eA*eT*eG)
expression of the mir-15a pri-miRNA molecule [1]: significant inhibition of expression of the mir-15a pri-miRNA molecule

ISIS 328744: SEQ ID NO: 653, targeting mir-182 (e[5mC]*eG*eG*eA*eT*d[5mC]*d[5mC]*dT*dG*dT*dT*dA*d[5mC]*d[5mC]*dT*e[5mC]*eA*e[5mC]*e[5mC]*eA)
effect on cell cycling [2]: not affected | phase of the cell cycle in which cells arrest or delay ([3]; HeLa, 150 nM, 48 hours): increase in the percentage of cells in the G2/M-phase of the cell cycle as well as in the subG1 category | effect on cell cycling [4]: not affected

347973 (eG*eG*e[5mC]*eA*eG*d[5mC]*dA*d[5mC]*dA*dA*dT*dA*dT*dG*dG*e[5mC]*e[5mC]*eT*eG*e[5mC]) [compound 347973]
Expression of mir-15a pri-miRNA (% UTC) ([1]; HepG2 cells, 100 nM, real-time RT-PCR): 143.3 % UTC

328744 (antisense e[5mC]*eG*eG*eA*eT*d[5mC]*d[5mC]*dT*dG*dT*dT*dA*d[5mC]*d[5mC]*dT*e[5mC]*eA*e[5mC]*e[5mC]*eA) [compound 328744]
% cells in cell cycle phase G1 [2]: 130% | % cells in cell cycle phase G2/M [2]: 101% | % cells in cell cycle phase S [2]: 59% | % cells in cell cycle phase aneuploid [2]: 100% | % cells in cell cycle phase subG1 [2]: 90% | % cells in cell cycle phase G1 [5]: 108% | % cells in cell cycle phase G2/M [5]: 110% | % cells in cell cycle phase S [5]: 87% | % cells in cell cycle phase aneuploid [5]: 115% | % cells in cell cycle phase subG1 [5]: 153% | % cells aneuploid [3, 7]: 111% | % cells in cell cycle phase G1 [3, 7]: 31% | % cells in cell cycle phase G2/M [3, 7]: 167% | % cells in cell cycle phase S [3, 7]: 108% | % cells in cell cycle phase subG1 [3, 7]: 229% | % cells in cell cycle phase: G1 ([3]; 150 nM oligomeric compound): 31% | % cells in cell cycle phase: G2/M ([3]; 150 nM oligomeric compound): 334% | % cells in cell cycle phase: S ([3]; 150 nM oligomeric compound): 78% | % cells in cell cycle phase: aneuploid ([3]; 150 nM oligomeric compound): 171% | % cells in cell cycle phase: subG1 ([3]; 150 nM oligomeric compound): 1774% | % cells in cell cycle phase G1 [3, 8]: 53% | % cells in cell cycle phase G2/M [3, 8]: 213% | % cells in cell cycle phase S [3, 8]: 110% | % cells in cell cycle phase aneuploid [3, 8]: 178% | % cells in cell cycle phase subG1 [3, 8]: 1057% | % cells in cell cycle phase G1 [4]: 94% | % cells in cell cycle phase G2/M [4]: 127% | % cells in cell cycle phase S [4]: 111% | % cells in cell cycle phase aneuploid [4]: 158% | % cells in cell cycle phase subG1 [4]: 125% | % cells in cell cycle phase G1 [6]: 90% | % cells in cell cycle phase G2/M [6]: 118% | % cells in cell cycle phase S [6]: 87% | % cells in cell cycle phase aneuploid [6]: 191% | % cells in cell cycle phase subG1 [6]: 85%

345395 (AAGGGATTCCTGGGAAAACTGGAC; sugars from the 5' end e5 d10 e9, all phosphorothioate, methylation of C not given here) [compound 345395]
% cells in cell cycle phase G1 [5]: 106% | % cells in cell cycle phase G2/M [5]: 115% | % cells in cell cycle phase S [5]: 87% | % cells in cell cycle phase aneuploid [5]: 150% | % cells in cell cycle phase subG1 [5]: 147% | % cells aneuploid [3, 7]: 77% | % cells in cell cycle phase G1 [3, 7]: 54% | % cells in cell cycle phase G2/M [3, 7]: 222% | % cells in cell cycle phase S [3, 7]: 82% | % cells in cell cycle phase subG1 [3, 7]: 247% | % cells in cell cycle phase: G1 ([3]; 150 nM oligomeric compound): 51% | % cells in cell cycle phase: G2/M ([3]; 150 nM oligomeric compound): 157% | % cells in cell cycle phase: S ([3]; 150 nM oligomeric compound): 192% | % cells in cell cycle phase: aneuploid ([3]; 150 nM oligomeric compound): 87% | % cells in cell cycle phase: subG1 ([3]; 150 nM oligomeric compound): 213% | % cells in cell cycle phase G1 [3, 8]: 108% | % cells in cell cycle phase G2/M [3, 8]: 95% | % cells in cell cycle phase S [3, 8]: 96% | % cells in cell cycle phase aneuploid [3, 8]: 139% | % cells in cell cycle phase subG1 [3, 8]: 87% | % cells in cell cycle phase G1 [4]: 100% | % cells in cell cycle phase G2/M [4]: 104% | % cells in cell cycle phase S [4]: 97% | % cells in cell cycle phase aneuploid [4]: 115% | % cells in cell cycle phase subG1 [4]: 132%

25691 (antisense eG*e[5mC]*e[5mC]*eA*eA*dG*dG*d[5mC]*dG*dT*dG*dA*d[5mC]*dA*dT*eG*eA*eT*eA*eT) [compound 25691]
% cells in cell cycle phase G1 [2]: 130% | % cells in cell cycle phase G2/M [2]: 93% | % cells in cell cycle phase S [2]: 66% | % cells in cell cycle phase aneuploid [2]: 95% | % cells in cell cycle phase subG1 [2]: 212% | % cells in cell cycle phase G1 [5]: 116% | % cells in cell cycle phase G2/M [5]: 99% | % cells in cell cycle phase S [5]: 83% | % cells in cell cycle phase aneuploid [5]: 105% | % cells in cell cycle phase subG1 [5]: 316% | % cells in cell cycle phase G1 [3, 8]: 53% | % cells in cell cycle phase G2/M [3, 8]: 113% | % cells in cell cycle phase S [3, 8]: 141% | % cells in cell cycle phase aneuploid [3, 8]: 203% | % cells in cell cycle phase subG1 [3, 8]: 881% | % cells in cell cycle phase G1 [4]: 94% | % cells in cell cycle phase G2/M [4]: 125% | % cells in cell cycle phase S [4]: 116% | % cells in cell cycle phase aneuploid [4]: 209% | % cells in cell cycle phase subG1 [4]: 183% | % cells in cell cycle phase G1 [6]: 94% | % cells in cell cycle phase G2/M [6]: 104% | % cells in cell cycle phase S [6]: 104% | % cells in cell cycle phase aneuploid [6]: 203% | % cells in cell cycle phase subG1 [6]: 125%
